Data published in US6608086B2, “Dihydropyridines and new uses thereof” (Synaptic Pharmaceutical Corporation, priority 1993, dated 2003).
Where a name gives a salt, the structure may show the parent alone. Read-outs that look alike come from different tables or passages of the source.

How the values were obtained:
[1] = biological target: T1, α1C Human Adrenergic Receptor (Homo sapiens, UniProt P35348); assay: Radioligand binding, [3H]prazosin, cloned human α1C adrenergic receptor; settings: cloned human α1C receptor, LM(tk−) cell membranes, read-out: pKi alpha-1 1c (converted)
T1 construct: The entire coding region of α1C (1401 bp); expressed in transfected cells
T1 sequence (P35348 1-466): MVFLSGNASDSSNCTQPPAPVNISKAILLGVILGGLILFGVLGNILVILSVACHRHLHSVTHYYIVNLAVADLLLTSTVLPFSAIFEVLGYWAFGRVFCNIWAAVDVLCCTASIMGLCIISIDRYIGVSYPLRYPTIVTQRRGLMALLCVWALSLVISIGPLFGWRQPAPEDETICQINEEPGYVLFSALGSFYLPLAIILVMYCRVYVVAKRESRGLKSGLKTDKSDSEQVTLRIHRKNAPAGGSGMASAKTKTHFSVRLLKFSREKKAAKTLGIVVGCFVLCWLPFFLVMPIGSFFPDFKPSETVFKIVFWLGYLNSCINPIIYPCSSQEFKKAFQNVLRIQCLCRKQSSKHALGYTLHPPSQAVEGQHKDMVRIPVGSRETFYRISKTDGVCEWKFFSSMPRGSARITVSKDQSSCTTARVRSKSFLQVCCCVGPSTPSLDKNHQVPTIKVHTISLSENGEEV
Procedure: (§1) The protocols for these experiments are given below.
(§2) These cell lines were prepared by transfecting the cloned cDNA or cloned genomic DNA or constructs containing both genomic DNA and cDNA encoding the human α-adrenergic receptors as follows:
α1C Human Adrenergic Receptor:
The construct involved ligating three partial overlapping fragments: a 5′, 0.6 kb HincII genomic clone, a central 1.8 EcoRI hippocampal cDNA clone, and a 3′ 0.6Kb PstI genomic clone. The hippocampal cDNA fragment overlaps with the 5′ and 3′ genomic clones so that the HincII and PstI sites at the 5′ and 3′ ends of the cDNA clone, respectively, were utilized for ligation. This full-length clone was cloned into the KpnI site of the expression vector, using the 5′ and 3′ KpnI sites of the fragment, derived from vector (i.e., pBluescript) and 3′-untranslated sequences, respectively. Stable cell lines were selected as described above.
(§3) Radioligand Binding Assays:
(§4) Transfected cells from culture flasks were scraped into 5 ml of 5 mM Tris-HCl, 5 mM EDTA, pH 7.5, and lysed by sonication. The cell lysates were centrifuged at 1000 rpm for 5 min at 4° C., and the supernatant was centrifuged at 30,000× g for 20 min at 4° C. The pellet was suspended in 50 mM Tris-HCl, 1 mM MgCl2, and 0.1% ascorbic acid at pH 7.5. Binding of the α1 antagonist [^3H]prazosin (0.5 nM, specific activity 76.2 Ci/mmol) to membrane preparations of LM(tk−) cells was done in a final volume of 0.25 ml and incubated at 37° C. for 20 min. Nonspecific binding was determined in the presence of 10 μM phentolamine. The reaction was stopped by filtration through GF/B filters using a cell harvester.

[2] = biological target: T2, α1A Human Adrenergic Receptor (Homo sapiens, UniProt P25100); assay: Radioligand binding, [3H]prazosin, cloned human α1A adrenergic receptor; settings: [3H]prazosin
T2 construct: The entire coding region of α1A (1719 bp); expressed in transfected cells
T2 sequence (P25100 1-572): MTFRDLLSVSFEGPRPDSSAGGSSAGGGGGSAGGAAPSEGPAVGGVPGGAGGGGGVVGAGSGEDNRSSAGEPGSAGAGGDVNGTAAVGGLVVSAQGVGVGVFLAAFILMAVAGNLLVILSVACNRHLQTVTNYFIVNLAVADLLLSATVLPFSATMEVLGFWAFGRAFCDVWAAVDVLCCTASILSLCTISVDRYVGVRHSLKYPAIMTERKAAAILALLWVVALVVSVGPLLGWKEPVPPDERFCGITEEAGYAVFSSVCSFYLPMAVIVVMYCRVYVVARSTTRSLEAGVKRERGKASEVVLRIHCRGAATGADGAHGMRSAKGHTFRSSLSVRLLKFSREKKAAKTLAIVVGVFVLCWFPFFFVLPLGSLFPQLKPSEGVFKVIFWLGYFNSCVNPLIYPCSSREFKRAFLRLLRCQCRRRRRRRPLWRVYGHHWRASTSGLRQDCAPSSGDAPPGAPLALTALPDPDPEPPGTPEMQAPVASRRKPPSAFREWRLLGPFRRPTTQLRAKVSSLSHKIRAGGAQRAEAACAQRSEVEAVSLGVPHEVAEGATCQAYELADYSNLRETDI
Procedure: as §1, §2
α1A Human Adrenergic Receptor:
The cells were grown, in a controlled environment (37° C., 5% CO2), as monolayers in Dulbecco's modified Eagle's Medium (GIBCO, Grand Island, N.Y.) containing 25 mM glucose and supplemented with 10% bovine calf serum, 100 units/ml penicillin g, and 100 μg/ml streptomycin sulfate.
as §3, §4

[3] = biological target: T3, α1B Human Adrenergic Receptor (Homo sapiens, UniProt P35368); assay: Radioligand binding, [3H]prazosin, cloned human α1B adrenergic receptor; settings: cloned human α1B receptor, LM(tk−) cell membranes, read-out: pKi alpha-1 1b (converted)
T3 construct: The entire coding region of α1B (1563 bp); expressed in transfected cells
T3 sequence (P35368 1-520): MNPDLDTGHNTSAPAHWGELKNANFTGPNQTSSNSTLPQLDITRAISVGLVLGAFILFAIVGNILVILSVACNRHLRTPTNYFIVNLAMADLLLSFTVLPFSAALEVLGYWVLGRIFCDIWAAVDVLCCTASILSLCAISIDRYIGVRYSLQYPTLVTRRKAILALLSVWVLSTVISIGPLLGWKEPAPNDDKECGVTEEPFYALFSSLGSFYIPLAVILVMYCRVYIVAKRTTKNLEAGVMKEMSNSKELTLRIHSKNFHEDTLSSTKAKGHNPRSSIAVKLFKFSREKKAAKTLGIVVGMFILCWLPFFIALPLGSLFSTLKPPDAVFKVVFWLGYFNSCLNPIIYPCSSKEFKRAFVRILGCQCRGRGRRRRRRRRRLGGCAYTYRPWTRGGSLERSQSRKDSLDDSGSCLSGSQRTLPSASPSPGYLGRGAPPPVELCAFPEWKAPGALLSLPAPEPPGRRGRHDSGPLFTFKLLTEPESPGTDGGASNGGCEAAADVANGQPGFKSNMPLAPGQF
Procedure: as §1, §2
α1B Human Adrenergic Receptor:
The construct involved ligating the full-length containing EcoRI brainstem cDNA fragment from λ ZapII into the expression vector. Stable cell lines were selected as described above.
as §3, §4

[4] = cloned human α1A receptor, LM(tk−) cell membranes, read-out: pKi alpha-1 1a (converted)

Q: With CCC1=C(C(=O)NCCCN2CCC(c3ccccc3)(c3ccccc3)CC2)C(c2ccc(N)cc2)C(C(=O)OC)=C(C)N1 (centres unmarked) (as salt: salt) [Example 114, 4-(4-Aminophenyl)-2-ethyl-1,4-dihydro-5-methoxycarbonyl-6-methyl-3-(N-(3-(4,4-diphenylpiperidin-1-yl)propyl)carboxamido)-pyridine] as the compound, how does the melting point read?
A: 169 to 172 °C (dec.)

Q: For COC(=O)C1=C(C)N(C)C(C)=C(C(=O)OCCCN2CCC(c3ccccc3)(c3ccccc3)CC2)C1c1ccc([N+](=O)[O-])cc1.Cl.O (centres unmarked) (hydrate or solvate) [Example 92, 1,4-Dihydro-5-methoxycarbonyl-1,2,6-trimethyl-4-(4-nitrophenyl)-3-[3-(4,4-diphenylpiperidin-1-yl)propoxy]carbonylpyridine hydrochloride hydrate], which melting point is on record?
A: 127 to 128 °C

Q: Which melting point does the source give for CCC1=C(C(=O)OCCC#N)C(c2ccc([N+](=O)[O-])cc2)C(C(=O)NCCCN2CCC(c3ccccc3)(c3ccccc3)CC2)=C(COC)N1 (centres unmarked) (hydrate or solvate) [Example 135] here?
A: 120 to 125 °C

Q: With COC(=O)C1=C(C)NC(C)=C(C(=O)NCCCN2CCC(c3ccccc3)CC2)C1c1ccc([N+](=O)[O-])cc1 (racemic) (as salt: hydrochloride) (hydrate or solvate) [(±)-45, (±)-1,4-Dihydro-3-methoxycarbonyl-2,6-dimethyl-4-(4-nitrophenyl)-5-{N-[3-(4-phenylpiperidin-1-yl)propyl]}carboxamidopyridine hydrochloride hemihydrate] as the compound, how does the melting point read?
A: 160 °C

Q: For CCC1=C(C(N)=O)C(c2ccc([N+](=O)[O-])cc2)C(C(=O)NCCCN2CCC(C#N)(c3ccccc3)CC2)=C(CC)N1 (racemic) (as salt: hydrochloride) (hydrate or solvate) [(±)-102, 5-Carboxamido-3-{N-[(4-cyano-4-phenylpiperidin-1-ly)propyl]carboxamido-2,6-diethyl-1,4-dihydro-4-(4-nitrophenyl)pyridine hydrochloride hydrate], which melting point is on record?
A: 230 °C (dec.)

Q: For CCC1=C(C(=O)NC)C(c2ccc([N+](=O)[O-])cc2)C(C(=O)NCCCN2CCC(c3ccccc3)(c3ccc(OC)cc3)CC2)=C(CC)N1 (centres unmarked) [Example 107], which Ki [1] is on record?
A: 0.00589 µM

Q: And the Ki [2, 4]?
A: 0.871 µM

Q: What about the Ki [3] of the same compound?
A: 1 µM

Q: What about the melting point of the same compound?
A: 133 °C (dec.)

Q: With CCC1=C(C(=O)NC)C(c2ccc([N+](=O)[O-])cc2)C(C(=O)NCCCN2CCC(C(c3ccccc3)c3ccccc3)CC2)=C(CC)N1 (centres unmarked) [Example 109, 2,6-Diethyl-1,4-dihydro-5-(N-methyl) carboxamido-4-(4-nitrophenyl)-3-{-[13-(4-diphenylmethylpiperidin-1-yl)propyl]}carboxamidopyridine] as the compound, how does the Ki [1] read?
A: 0.0661 µM

Q: What about the Ki [2, 4] of the same compound?
A: 0.851 µM

Q: And the Ki [3]?
A: 0.275 µM

Q: And the melting point?
A: 128 °C (dec.)

Q: For CCC1=C(C(=O)NC)C(c2ccc([N+](=O)[O-])cc2)C(C(=O)NCCCN2CCC(C(N)=O)(c3ccccc3)CC2)=C(CC)N1 (centres unmarked) [Example 110, 3-{N-[3-(4-Carboxamido-4-phenylpiperidin-1-yl)propyl]}carboxamido-2,6-diethyl-1,4-dihydro-5-(N-methyl)carboxamido-4-(4-nitrophenyl)pyridine], which Ki [1] is on record?
A: 1.55 µM

Q: And the Ki [2, 4]?
A: 17.8 µM

Q: What about the Ki [3] of the same compound?
A: 31.6 µM

Q: And the melting point?
A: 124 °C (dec.)

Q: Which results are given for CCNC(=O)C1=C(CC)NC(CC)=C(C(=O)NCCCN2CCC(c3ccccc3)(c3ccc(OC)cc3)CC2)C1c1ccc([N+](=O)[O-])cc1 (centres unmarked) [Example 111, 2,6-Diethyl-5-(N-ethyl)carboxamido-1,4-dihydro-3-{N-[3-(4-(4-methoxy)phenyl-4-phenylpiperidin-1-yl)propyl]}carboxamido-4-(4-nitrophenyl)pyridine]?
A: Ki [1]: 0.00575 µM; Ki [2, 4]: 1.78 µM; Ki [3]: 0.955 µM; melting point: 172 °C (dec.)

Q: For CCC1=C(C(=O)O)C(c2ccc([N+](=O)[O-])cc2)C(C(=O)NCCCN2CCC(c3ccccc3)(c3ccccc3)CC2)=C(COC)N1 (centres unmarked) [Example 136, 6-Ethyl-1,4-dihydro-2-(methyloxy)methyl-4-(4-nitro)phenyl-3-(N-(3-(4,4-diphenylpiperidin-1-yl)propyl))carboxamidopyridine-5-carboxylic acid], which Ki [1] is on record?
A: 0.00347 µM

Q: And the Ki [2, 4]?
A: 0.832 µM

Q: What about the Ki [3] of the same compound?
A: 0.407 µM

Q: What about the melting point of the same compound?
A: 120 to 125 °C (dec.)

Q: With CCOC(=O)C1(c2ccccc2)CCN(CCCNC(=O)C2=C(C)NC(C)=C(C(=O)NC)C2c2ccc([N+](=O)[O-])cc2)CC1 (centres unmarked) [Example 188, 1,4-Dihydro-2,6-dimethyl-3-{N-[3-(4-ethoxycarbonyl-4-phenyl-piperidin-1-yl)propyl]}carboxamide-5-(N-methyl)carboxam ido-4-(4nitrophenyl)pyridine] as the compound, how does the melting point read?
A: 112 to 113 °C

Q: What does the source list for COC(=O)C1(c2ccccc2)CCN(CCCNC(=O)C2=C(C)NC(C)=C(C(=O)OCCC#N)C2c2ccc([N+](=O)[O-])cc2)CC1 (centres unmarked) [Example 203, 5-(2-Cyanoethoxycarbonyl)-1,4-dihydro-2,6-dimethyl-3-{N-[3-(4-methoxycarbonyl-4-phenylpiperidin-1-yl)propyl]}carbo xamido-4-(4-nitrophenyl)pyridine]?
A: Ki ([2]; cloned human receptor, LM(tk-) cell membranes, mean, read-out: PKi alpha-1 1a (converted)): 0.759 µM; melting point: 73 to 74 °C

Q: Which melting point does the source give for CCNC(=O)C1=C(C)NC(C)=C(C(=O)NCCCN2CCC(C(=O)OC)(c3ccccc3)CC2)C1c1ccc([N+](=O)[O-])cc1 (centres unmarked) [Example 205, 1,4-Dihydro-2,6-dimethyl-5-(N-ethyl)carboxamido-3-{N-[3-(4-methoxycarbonyl-4-phenylpiperidin-1-yl)propyl]}carboxamido-4-(4-nitrophenyl)pyridine] here?
A: 117 to 118 °C
